Results: patent US10835468B2, “Particular pyridinedicarboxylic acid derivative/antioxidant combination” (L'OREAL, priority 2014, dated 2020)
Where “and” joins values, the source holds several entries; their conditions need not be identical. Equal entries are not always repeated.

Experiments:
Type in all cases: cell-based
Details in all cases: 72 hours under normoxia
BNIP3 = assay: Expression of hypoxia-sensitive gene BNIP3 in primary human keratinocytes in culture (RT-qPCR)
Protocol: (§1) The following protocol was followed: the tests were performed on human keratinocytes in culture, seeded on Greiner brand 48-well plates, coated with bovine collagen I. The plates were prepared according to the following procedure: the solution of bovine collagen I at 0.1 mg/ml was prepared by dilution in phosphate-buffered saline (PBS) of the bovine collagen I solution sold by the company Life Technologies. Each well was immersed with 1 ml of this dilution, which was left at the bottom of the wells for 1 hour at 37° C. At the end of the incubation, the collagen solution was removed and the wells were rinsed twice with 1 ml of PBS. The plates were then stored at 4° C. until the time of use. […] Following this culturing and treatment, the cell lawns were washed with phosphate-buffered saline (or PBS) and then lysed using a lysis buffer proposed in the kit from the supplier Qiagen. The RNAs were then extracted using the RNeasy isolation kit and the Qiacube robotic workstation, both sold by the company Qiagen, according to the manufacturer's instructions. The quantity and quality of RNAs were controlled using the LabChip® GX bioanalyser from Perkin-Elmer before performing reverse transcription (RT) using the Qiagen kit and according to the supplier's recommendations (QuantiTect reverse transcription kit). The cDNA obtained following the RT was then amplified by real-time quantitative PCR using a specific kit sold under the commercial brand LightCycler® 480 SYBR Green Master Mix by the company Roche (Cat. No. 14123920) and an LC480 thermocycler (Roche). The PCRs were performed in triplicate (n=3). The information relating to the primers used is presented below. […] EGNL3/[…] Quantitect Assay Primer; RPL13A/QT00089915/Hs_RPL13A-1-SG Quantitect Assay Primer, and the fluorescent probe of brand name SYBR Green sold by the company specified previously. The PCR was performed in three phases: • denaturing phase for 10 minutes at 95° C., • amplification phase which consists of 45 cycles comprising: • a step of denaturing for 30 seconds at 95° C., • a step of hybridization for 30 seconds at 60° C., and • a step of elongation at 72° C. for 30 seconds, • melting phase for ensuring the quality of the hybridizations. The incorporation of SYBR Green into the amplified DNA was measured continuously during the amplification cycles. These measurements make it possible to obtain curves of fluorescence intensity as a function of the PCR cycles and thus to evaluate the relative expression of each marker from the cycle thresholds (Ct), corresponding to the number of cycles required to appropriately detect a fluorescence level. For each marker and for each condition, the relative expression (RE) value was normalized relative to the expression of the reference gene RPL13. The expression of each gene is normalized by that of the “stable referent gene” (or “housekeeping gene” RPL13A, ribosomal gene). The results (“fold change” (Fc)) are expressed relative to the control. The genes used are hypoxia-sensitive (HIF-1 alpha signalling pathway) and are collated in Table 1 below. Three hypoxia-sensitive genes (BNIP3, EGLN3 and CA9) were used in the following examples. Three tests were performed according to the protocol described above for each gene and for each compound or combination.

EGLN3 = assay: Expression of hypoxia-sensitive gene EGLN3 in primary human keratinocytes in culture (RT-qPCR)
Protocol: as §1

CA9 = assay: Expression of hypoxia-sensitive gene CA9 in primary human keratinocytes in culture (RT-qPCR)
Protocol: as §1

SMILES | BNIP3 expression, fold change relative to the control, mean ± standard deviation (BNIP3; compound 300 μM) | BNIP3 expression, fold change relative to the control, single tests (BNIP3; compound 300 μM) | EGLN3 expression, fold change relative to the control, mean ± standard deviation (EGLN3; compound 300 μM) | EGLN3 expression, fold change relative to the control, single tests (EGLN3; compound 300 μM) | CA9 expression, fold change relative to the control, mean ± standard deviation (CA9; compound 300 μM) | CA9 expression, fold change relative to the control, single tests (CA9; compound 300 μM) | BNIP3 expression, fold change relative to the control, mean ± standard deviation (BNIP3; compound 30 μM) | BNIP3 expression, fold change relative to the control, single tests (BNIP3; compound 30 μM) | EGLN3 expression, fold change relative to the control, mean ± standard deviation (EGLN3; compound 30 μM) | CA9 expression, fold change relative to the control, mean ± standard deviation (CA9; compound 30 μM) | BNIP3 expression, fold change relative to the control, mean ± standard deviation (BNIP3; compound 10 μM) | BNIP3 expression, fold change relative to the control, single tests (BNIP3; compound 10 μM) | EGLN3 expression, fold change relative to the control, mean ± standard deviation (EGLN3; compound 10 μM) | CA9 expression, fold change relative to the control, mean ± standard deviation (CA9; compound 10 μM) | BNIP3 expression, fold change relative to the control, mean ± standard deviation (BNIP3; compound 100 μM) | BNIP3 expression, fold change relative to the control, single tests (BNIP3; compound 100 μM) | EGLN3 expression, fold change relative to the control, mean ± standard deviation (EGLN3; compound 100 μM) | EGLN3 expression, fold change relative to the control, single tests (EGLN3; compound 100 μM) | CA9 expression, fold change relative to the control, mean ± standard deviation (CA9; compound 100 μM) | also measured
CCOC(=O)c1ccnc(C(=O)OCC)c1 [Stemoxydine, diethyl 2,4-pyridinedicarboxylate] | (1.76 ± 0.32) | 1.51 and 1.65 and 2.13 | (2.60 ± 0.83) | 2.15 and 2.09 and 3.56 | (4.53 ± 1.15) | 3.87 and 3.86 and 5.86 |  |  |  |  |  |  |  |  |  |  |  |  |  | 
O=C(O)[C@H]1O[C@@H](Oc2cc3oc(-c4ccccc4)cc(=O)c3c(O)c2O)[C@H](O)[C@@H](O)[C@@H]1O [Baicalin, baicalin] |  |  |  |  |  |  | (1.23 ± 0.15) | 1.14 and 1.41 and 1.15 | (2.07 ± 0.39) | (0.91 ± 0.27) |  |  |  |  |  |  |  |  |  | BNIP3 expression, fold change relative to the control, mean ± standard deviation (BNIP3; compound 3 μM): (1.11 ± 0.15); BNIP3 expression, fold change relative to the control, single tests (BNIP3; compound 3 μM): 0.99 and 1.27 and 1.06; EGLN3 expression, fold change relative to the control, mean ± standard deviation (EGLN3; compound 3 μM): (1.19 ± 0.17); EGLN3 expression, fold change relative to the control, single tests (EGLN3; compound 3 μM): 1.00 and 1.33 and 1.25; EGLN3 expression, fold change relative to the control, single tests (EGLN3; compound 30 μM): 1.70 and 2.47 and 2.03; CA9 expression, fold change relative to the control, mean ± standard deviation (CA9; compound 3 μM): (1.06 ± 0.28); CA9 expression, fold change relative to the control, single tests (CA9; compound 3 μM): 1.27 and 1.18 and 0.74; CA9 expression, fold change relative to the control, single tests (CA9; compound 30 μM): 1.06 and 1.07 and 0.6
Oc1ccc(C=Cc2cc(O)cc(O)c2)cc1 [Resveratrol, resveratrol] |  |  |  |  |  |  |  |  |  |  |  |  |  |  |  |  |  |  |  | BNIP3 expression, fold change relative to the control, mean ± standard deviation (BNIP3; compound 0.3 μM): (1.26 ± 0.24); BNIP3 expression, fold change relative to the control, single tests (BNIP3; compound 0.3 μM): 1.05 and 1.53 and 1.21; BNIP3 expression, fold change relative to the control, mean ± standard deviation (BNIP3; compound 1 μM): (2.01 ± 0.79); EGLN3 expression, fold change relative to the control, mean ± standard deviation (EGLN3; compound 0.3 μM): (1.92 ± 0.55); EGLN3 expression, fold change relative to the control, single tests (EGLN3; compound 0.3 μM): 1.31 and 2.36 and 2.10; EGLN3 expression, fold change relative to the control, mean ± standard deviation (EGLN3; compound 1 μM): (3.65 ± 1.76); CA9 expression, fold change relative to the control, mean ± standard deviation (CA9; compound 0.3 μM): (1.63 ± 0.28); CA9 expression, fold change relative to the control, single tests (CA9; compound 0.3 μM): 1.82 and 1.75 and 1.31; CA9 expression, fold change relative to the control, mean ± standard deviation (CA9; compound 1 μM): (2.02 ± 0.33); CA9 expression, fold change relative to the control, single tests (CA9; compound 1 μM): 2.34 and 1.97 and 1.75
CCCCCCCCCCCCCCCC(=O)OC[C@H](O)[C@H]1OC(=O)C(O)=C1O [Ascorbyl palmitate, ascorbyl palmitate] |  |  |  |  |  |  | (1.15 ± 0.41) | 1.04 and 1.6 and 0.81 | (1.16 ± 0.81) | (0.99 ± 0.80) | (1.10 ± 0.22) | 1.01 and 1.35 and 0.95 | (1.35 ± 0.46) | (1.63 ± 0.38) |  |  |  |  |  | CA9 expression, fold change relative to the control, single tests (CA9; compound 10 μM): 1.65 and 2.00 and 1.25
CC1=NCC[C@@H](C(=O)O)N1 [Ectoin, ectoin] | (1.62 ± 0.2) | 1.40 and 1.79 and 1.66 | (2.62 ± 0.48) | 2.07 and 2.82 and 2.97 | (2.57 ± 0.35) | 2.23 and 2.54 and 2.93 |  |  |  |  |  |  |  |  | (1.62 ± 0.27) | 1.31 and 1.77 | (2.90 ± 0.50) | 2.48 and 2.76 and 3.46 | (3.01 ± 0.64) | CA9 expression, fold change relative to the control, single tests (CA9; compound 100 μM): 2.73 and 2.55 and 3.74
O=C1O[C@H]([C@@H](O)CO)C(O)=C1O [Vitamin C, reference compound] |  |  |  |  |  |  |  |  |  |  | (1.01 ± 0.12) | 1.02 and 1.13 and 0.89 | (1.07 ± 0.29) | (1.02 ± 0.52) | (1.12 ± 0.18) | 0.98 and 1.32 and 1.07 | (1.24 ± 0.24) | 1.05 and 1.51 and 1.16 | (1.22 ± 0.42) | EGLN3 expression, fold change relative to the control, single tests (EGLN3; compound 10 μM): 0.92 and 1.41 and 0.89
